# According to patent publication US20250179167A1, “IL-6 INHIBITOR AS TREATMENT FOR NEPHROPATHY” (YALE UNIVERSITY, priority 2022, published 2025):
# Tests used:
# control and GR^ECKO mice = assay: Wnt inhibitor (LGK974) treatment in nondiabetic and diabetic control and GR^ECKO mice; assay type: in vivo, mouse
# Procedure: (FIG. 5A) Schematic diagram showing the treatment protocol of Wnt inhibition in diabetic control and GR^ECKO mice. (FIG. 5B) Physiological parameters including body weight, blood glucose and kidney weight/body weight were analyzed. N=6 biologically independent mice/group combined from two experiments. (FIG. 5C) Masson trichrome, Sirius red and PAS staining as well as immunohistochemical analysis of β-catenin levels in the kidneys of wnti-treated diabetic control and GR^ECKO mice. Representative images are shown; original magnification 300×. Relative area of fibrosis (%) and relative collagen deposition (%) were measured using the ImageJ program. N=8 biologically independent mice/group combined from three experiments were analyzed. Scale bar 50 μm. Data are mean SEM. For all panels one-way ANOVA with Tukey post-test was used for analysis of statistical significance. Significance—*p<0.05, **p<0.01, ***p<0.001.
# Physiological parameters including body weight, blood glucose, and kidney weight/body weight are shown. n=7 biologically independent mice/group combined from two experiments were analyzed. Data are mean±SEM. One-way Anova with Tukey multiple comparison post hoc test was used to calculate statistical significance.
# FIGS. 27A-27B Histological analysis of kidneys from Wnt inhibitor-treated nondiabetic control and GR^ECKO mice. (FIG. 27A) Masson trichrome staining (MITS) and Sirius red staining in Wnt inhibitor-treated nondiabetic control and GR^ECKO mice. Representative images are shown; original magnification 200×. Area of fibrosis (%) and relative collagen deposition (%) were measured using the ImageJ program. N=5 biologically independent mice/group were analyzed. Data are mean±SEM. Scale bar 50 μm. (FIG. 27B) Immunohistochemical analysis of -catenin expression in the kidneys of Wnt inhibitor-treated nondiabetic control and GR^ECKO mice. Scale bar 30 μm. n=6 biologically independent mice/group combined from two independent experiments were analyzed. Representative images are shown; original magnification 300×. One-way Anova with Tukey multiple comparison post hoc test was used to calculate statistical significance. Significance—*p<0.05, **p<0.01, ***p<0.001.
# Immunohistochemical analysis of Snail1, PPAR. and HIF1. expression in the Wnti-treated and untreated control, and GR^ECKO mice. Scale bar 50 μm. n=7 biologically independent mice/group combined from three independent experiments were analyzed. Representative images are shown; original magnification 200×.
# Immunofluorescence analysis of α-SMA/CD31/DAPI and E-cadherin/α-SMA/DAPI in kidneys of Wnt inhibitor-treated nondiabetic and diabetic mice. Top panel: α-SMA FITC labelled, CD31 rhodamine labelled and DAPI blue; Lower panel: E-Cadherin FITC-green labelled, α-SMA red rhodamine labelled and DAPI blue. Representative images are shown; original magnification 400×. Scale bar 50 μm. n=6 biologically independent mice/group combined from three independent experiments were analyzed. NC: non-diabetic control; DC: diabetic control; D: diabetic.
# To determine whether Wnt inhibition could mitigate the renal fibrosis observed in diabetic GR^ECKO mice, a cohort of animals was treated with LGK974. At the age of 8 weeks, control and GR^ECKO mice were injected with STZ 50 mg/kg for five consecutive days. Sixteen weeks after injection, LGK974 was administered by oral gavage for eight additional weeks (FIG. 5A).
# Animal Experimentation. All experiments were performed according to a protocol approved by the Institutional Animal Care and Use Committee at the Yale University School of Medicine and were in accordance with the National Institute of Health (NIH) Guidelines for the Care of Laboratory Animals Mice were housed at an ambient temperature of 68-79° F. with a humidity that ranged between 30%-70%. […]
# db/db mice = assay: Wnt inhibitor (LGK-974) treatment in db/db mice; assay type: in vivo, mouse; conditions: 5 mg/kg body weight orally by gavage
# Procedure: (FIG. 38A) Postprandial blood glucose measurements in the Wnt inhibitor treatments in db/db mice and untreated control db/db mice. LGK-974 (Wnt inhibitor) was treated at 5 mg/kg body weight dose orally by gavage. (FIG. 38B) GTT analysis in the Wnt inhibitor treatments in db/db mice and untreated control db/db mice. N=6 were analyzed in each group. (FIG. 38C) Area under curve (AUC) in the Wnt inhibitor treatments in db/db mice and untreated control db/db mice. N=6 were analyzed in each group. (FIG. 38D) Physiological parameters such as body weight, epididymal fat, kidney weight, liver weight and heart weight in the Wnt inhibitor treatments in db/db mice and untreated control db/db mice. N=6 were analyzed in each group. (FIG. 38E) MTS and Sirius red staining analysis in the Wnt inhibitor treatments in db/db mice and untreated control db/db mice. Representative pictures of 30× are shown. N=6 were analyzed in each group. Relative area fibrosis (RAF) and relative collagen deposition (RCD) were quantified using Image J software program. (FIG. 38F) MTS and Sirius red staining analysis in the heart sections in the Wnt inhibitor treatments in db/db mice and untreated control db/db mice. Representative pictures of 20× are shown. N=6 were analyzed in each group. […] N=6 were analyzed in each group. […]
# [1] = nondiabetic control mice or nondiabetic GR^ECKO, compared to untreated nondiabetic controls
smiles,measurement,setting,value
Cc1cc(-c2ncc(CC(=O)Nc3ccc(-c4cnccn4)cn3)cc2C)ccn1 [LGK974],level of EMT (E-cadherin/αSMA double positive cells),control and GR^ECKO mice; control and diabetic GR^ECKO mice,significantly reduced
same,kidney weight,control and GR^ECKO mice; diabetic GR^ECKO and diabetic control mice,significant reduction
same,EndMT (CD31/αSMA double positive cells),control and GR^ECKO mice; diabetic GR^ECKO mice,less pronounced
same,relative area of fibrosis,control and GR^ECKO mice; diabetic GR^ECKO mice,"less pronounced, though still significant"
same,relative collagen deposition,control and GR^ECKO mice; diabetic GR^ECKO mice,"less pronounced, though still significant"
same,tubular damage,control and GR^ECKO mice; diabetic GR^ECKO mice,"less pronounced, though still significant"
same,EndMT (CD31/αSMA double positive cells),control and GR^ECKO mice; diabetic control mice,significantly suppressed
same,relative area of fibrosis,control and GR^ECKO mice; diabetic control mice,clearly improved
same,relative collagen deposition,control and GR^ECKO mice; diabetic control mice,clearly improved
same,tubular damage,control and GR^ECKO mice; diabetic control mice,clearly improved
same,expression of HIF1α,control and GR^ECKO mice; kidneys of diabetic GR^ECKO,suppressed
same,expression of Snail1,control and GR^ECKO mice; kidneys of diabetic GR^ECKO,suppressed
same,level of PPARα,control and GR^ECKO mice; kidneys of diabetic GR^ECKO,significantly increased
same,renal fibrogenic phenotype,control and GR^ECKO mice; [1],did not result in any remarkable change
same,β-catenin level,control and GR^ECKO mice; [1],did not result in any remarkable change
same,fibrogenic phenotype,db/db mice,abolishes fibrogenic phenotype
